Reference: US20130115256A1, “METHODS FOR TREATING OR PREVENTING VASCULAR GRAFT FAILURE” (priority 2010, published 2013)

Tests used:
[1] = tested on: immortalized human pleural mesothelial cells (ATCC CRL-9444); test: TNF-α-induced IL-6 expression in mesothelial cells (ELISA); type: cell-based
From the text: In order to examine the efficacy of MMI-0100 ([…]; SEQ ID NO: 1) in inhibiting the production of inflammatory cytokines, an inflammatory response was triggered in vitro by applying TNF-α to immortalized human pleural mesothelial cells (ATCC CRL-9444). A mesothelial cell is a cell type that forms a monolayer of specialized pavement-like cells (mesothelium) that lines the body's abdominal cavities and internal organs. The primary function of this layer, the mesothelium, is to provide a slippery, non-adhesive, and protective surface. Mesothelial cells also are involved in transport of fluid and cells across the peritoneal (abdominal) cavities, antigen presentation, inflammation, tissue repair, coagulation, and tumor cell adhesion. It is well known that mesothelial cells play important role in the peritoneal inflammatory response. In response to bacterial products and macrophage-derived inflammatory cytokines (e.g., TNF-α), mesothelial cells produce Interleukin-1 (IL-1), Interleukin-6 (IL-6), and Interleukin-8 (IL-8), thus amplifying the inflammatory signals and recruiting leukocytes into the infected abdominal cavity.
Expression of inflammatory cytokines was induced by applying 1 or 10 ng/ml of TNF-α to cultured mesothelial cells. Briefly, immortalized human pleural mesothelial cells (ATCC CRL-9444) were grown in Medium199 with Earle's BSS, 0.75 mM L-glutamine (Mediatech Inc., Manassas, Va.), 1.25 g/l sodium bicarbonate (Sigma), 3.3 nM epidermal growth factor (EGF) (MBL International, Woburn, Mass.), 40 nM hydrocortisone (Sigma), 870 nM insulin (MBL International), 20 mM HEPES (Sigma), trace elements mixture B (Mediatech Inc., Waltham, Mass.), 10% fetal bovine serum (FBS) (Hyclone), and 1% penicillin/streptomycin (Mediatech Inc., Waltham, Mass.). […] Human mesothelial cells were treated with two different concentrations (1 and 10 ng/mL) of TNF-α for 2, 6, 12, and 24 hours (data not shown). […] Without TNF-α stimulation, mesothelial cells made negligible amounts of IL-6. […] In subsequent experiments designed to determine whether the MMI-0100 peptide ([…]; SEQ ID NO: 1) could reduce TNF-α induced IL-6 expression, both 1 and 10 ng/mL of TNF-α were selected as stimuli. 10 ng/mL of TNF-α is regarded as more physiologically relevant for mesothelial cells.
Prior to cytokine and/or inhibitor treatment, cells were allowed to acclimate in serum-free media consisting of only Medium 199 with Earle's BSS, 0.75 mM L-glutamine, 1.25 g/l sodium bicarbonate, 20 mM HEPES, trace elements mixture B (Mediatech Inc., Waltham, Mass.), and 1% penicillin/streptomycin (Mediatech Inc., Waltham, Mass.) for 24 hours. After the adapting period, cytokines (TNF-α and IL-1β) with or without MMI-0100 peptide or Rottlerin (Tocris Bioscience, Ellisville, Mo.; IC50=5 μM) were added to the media in order to compare the efficacy of MMI-0100 ([…]; SEQ ID NO: 1) with that of Rottlerin. Specifically, serum-starved mesothelial cells were treated with two different concentrations (1000 μM or 3000 μM) of MMI-0100 ([…] (SEQ ID NO: 1)) at three different time points (6 hours, 12 hours, and 24 hours) using two different concentrations of TNF-α (1 ng/ml or 10 ng/ml) or using 1 ng/ml of IL-1β. Average concentration of IL-6 (pg/ml per 10^5 cells) at each time was determined by cytokine-specific ELISA.

[2] = tested on: human saphenous vein (HSV); test: Sodium nitroprusside-induced relaxation of human saphenous vein in muscle bath; settings: control peptide 50 or 100 μM; data not shown
Description: In preparation for testing vein segment functional viability, HSV rings were weighed and their lengths recorded. To focus on smooth muscle responses, the endothelium was mechanically denuded by rolling the luminal surface of each ring at the tip of a fine vascular forceps before suspension in a muscle bath containing a bicarbonate buffer (120 mM NaCl, 4.7 mM KCl, 1.0 mM MgSO4, 1.0 mM NaH2PO4, 10 mM glucose, 1.5 mM CaCl2, and 25 mM […], pH 7.4) equilibrated with 95% O2 and 5% CO2 at 37° C. The rings were stretched and the length progressively adjusted until maximal tension was obtained. Normalized reactivity was obtained by determining the passive length-tension relationship for each vessel segment. Rings were maintained at a resting tension of 1 g, which produces maximal responses to contractile agonists as previously determined, and equilibrated for 2 hours in buffer. Force measurements were obtained using a Radnoti Glass Technology (Monrovia, Calif.) force transducer (159901A) interfaced with a Powerlab data acquisition system and Chart software (AD Instruments, Colorado Springs, Colo.).
HSV rings were first contracted with 110 mM KCl (with equimolar replacement of NaCl in bicarbonate buffer) and the generated force was measured. 110 mM KCl causes membrane depolarization, leading to contraction of vessels containing functionally viable smooth muscle. After multiple KCl challenges, rings were washed and allowed to equilibrate in bicarbonate solution for 30 min, and then contracted with phenylephrine (PE, 10^−7-10^−6 M). Rings were relaxed with a cumulative log dose of sodium nitroprusside (SNP), a nitric oxide donor, and the force generated was recorded. All rings were again washed and equilibrated in buffer for 15 minutes. Rings were then incubated with either buffer alone or buffer plus 100 μM of MMI-0100 ([…] (SEQ ID NO: 1)) for 2 hours, followed by treatment with the same doses of PE and SNP, and the forces generated again recorded. Measured force was normalized for ring weight and length and percent relaxation was calculated; force generated with 10^−6M of PE was set as 0% relaxation.
The enhancing effect of MMI-0100 ([…]; SEQ ID NO: 1) on smooth muscle relaxation was examined by pre-treating harvested human saphenous vein (HSV) with MMI-0100 ([…]; SEQ ID NO: 1) before SNP treatment. Segments of human saphenous vein (HSV) were equilibrated in a muscle bath and pretreated with a control solution (0.01M phosphate-buffered solution, PBS) or MMI-0100 ([…] (SEQ ID NO: 1); 30 μM, 2 hrs), contracted with norepinephrine. and relaxed with increasing doses of sodium nitroprusside (SNP, 0-1 μM). Percentage of relaxation at 0, 0.01, 0.1, and 1.0 μM of SNP was measured. […]

Compound | IL-6 expression compared with TNF-α alone ([1]; 1 ng/mL TNF-α, 6 hrs, Rottlerin) | IL-6 expression ([1]; 1 ng/mL TNF-α, Rottlerin) | IL-6 expression ([1]; 10 ng/mL TNF-α, Rottlerin 1 μM, twenty-four hours) | relaxation response compared to untreated control [2]
CC(=O)c1c(O)c(C)c(O)c(Cc2c(O)c3c(c(C(=O)/C=C/c4ccccc4)c2O)OC(C)(C)C=C3)c1O [Rottlerin, reference compound] | significantly increased | ineffective | reduced IL-6 expression | –
YARAAARQARA (mammal) [PTD peptide, control peptide (transduction domain, PTD peptide), reference compound] | – | – | – | no significant difference
